Entries after “also recorded” stand apart in the source; their conditions may differ.
What was measured:
E. coli nitroreductase = E. coli nitroreductase (Escherichia coli, UniProt P38489); assay: % drug reduction by E. coli nitroreductase during V79 cell treatment; type: biochemical; details: 2 hours at 37° C.
Description: The initial cell density was 2×10^5 /mL.

[1] = tested on: nitroreductase-transduced NIH3T3 cells; assay: Bystander effect, 3H-thymidine incorporation in mixtures of 3T3-NTR14 and untransduced NIH3T3 cells; type: cell-based; details: 50% transduced cells, FIG. 2
Description: FIG. 2. […] Results are plotted as the quantity of ^3 H-thymidine incorporation into live cells […] (Y-axis) versus the percentage of transduced cells in the sample population (X-axis).

[2] = tested on: NTR-expressing NIH3T3 cells; assay: Killing of serum-deprived (arrested) NTR-expressing NIH3T3 cells; type: cell-based; details: arrest by serum deprivation, FIG. 3a
Description: (§1) FIG. 3. Two graphs comparing the nitroreductase/CB 1954 and thymidine kinase/gancyclovir enzyme/prodrug systems.

HB4a/NR cells [3] = assay: Enzymatic reduction of CB 1954 by HB4a/NR cell lysate (HPLC); type: biochemical, human; details: 100 μM CB 1954, 500 μM NADH, pH7, 37° C., FIG. 5
Description: CB 1954 (100 μM) and NADH (500 μM) were incubated with a cell lysate prepared by sonication (250 μl, 1 mg/mL protein) in 10 mM sodium phosphate buffer (pH7) at 37° C. At various times aliquots (10 μl) were injected onto a Partisphere SCX (110×4.7 mm) HPLC column and eluted isocratically (2 ml/min) with 50 mM NaH2 PO4 in 1% (v/v) methanol. The eluate was continuously monitored for absorption at 260, 310, 340 nm using a diode-array detector. Alternatively, [U-^3 H]CB 1954 was added to give an activity of 1.6×10^5 dpm per nmole). Samples (0.3 ml) were collected and their tritium activity determined by liquid scintillation counting. Protein concentration was determined by a standard method (Biorad), calibrated against bovine albumin.

HB4a/NR cells [4] = assay: Cell survival of HB4a/NR cells, plates scored by eye for cell growth; type: cell-based, human; details: 2 hour exposure
Description: (§2) Cells were trypsinised and resuspended in fresh media at 2×10^5 cells per mL. They were then treated for two hours with CB 1954 (10 μl of appropriate stock in DMSO). The treated cells were then spun down, washed with fresh media, and plated out in triplicate at various concentrations. Cells were fixed and stained after 14 days incubation at 37° C. in a humidified atmosphere of 5% CO2 and 95% air.
(§3) The plating efficiency of both the HB4a/NR and HB4a/REP8 cell lines was poor and cells only grew when plated at a high initial cell density (1×10^4 per dish). These plates were scored by eye for cell growth. There is a dramatic difference in cell survival between the two cell lines.

[5] = Cell survival of HB4a/REP8 cells, plates scored by eye for cell growth; type: cell-based; details: human, 2 hour exposure, read-out: dose up to which no cytotoxicity is shown
Description: as §2, §3

HB4a/NR cells [6] = assay: DNA interstrand crosslinks, sedimentation in alkaline sucrose; type: cell-based, human
Description: HB4a/NR cells were radiolabelled by growth for 48 hours in [^3 h]-thymidine. The cells were then treated with either 0, 10 or 50 μM CB 1954 for 24 hours and their DNA then analysed by sedimentation in alkaline sucrose.

[7] = tested on: TK-expressing NIH3T3 cells; assay: Killing of arrested TK-expressing NIH3T3 cells; type: cell-based; details: 10^-8 to 10^-3 M, FIG. 3b
Description: as §1

[8] = 50 μM drug + 500 μM NADH, no nitroreductase
[9] = 50 μM drug + nitroreductase 2 μg/ml + 500 μM NADH
[10] = 50 μM drug + nitroreductase 2 μg/ml, no NADH
[11] = 50 μM drug alone, no NADH, no nitroreductase

Description for V79 cells: NADH was used as a co-factor for both enzymes.
All treatments were for 2 hours at 37° C. and the cells were then plated out for their resulting colony forming ability. The nitroreductase concentration was 2 μg/ml and NADH was used as a co-factor. The initial cell density was 2×10^5 /mL.
Various concentrations of the prodrug were incubated with 1 mL of V79 cells (2×10^5 /mL), NADH (500 μL) and NR (2, 5 or 10 μg/mL) in PBS. After 2 h at 37° C., the cells were harvested and assayed for colony forming ability.

Cc1c2oc3c(C)ccc(C(=O)N[C@@H]4C(=O)N[C@H](C(C)C)C(=O)N5CCC[C@H]5C(=O)N(C)CC(=O)N(C)[C@@H](C(C)C)C(=O)O[C@@H]4C)c3nc-2c(C(=O)N[C@@H]2C(=O)N[C@H](C(C)C)C(=O)N3CCC[C@H]3C(=O)N(C)CC(=O)N(C)[C@@H](C(C)C)C(=O)O[C@@H]2C)c(NC(=O)OCc2ccc([N+](=O)[O-])cc2)c1=O
cytotoxicity of the prodrug in the presence of NR (V79 cells; NR 2, 5 or 10 μg/mL, NADH, 2 h at 37° C., FIG. 1): greatly enhanced in the presence of NR

NC(=O)c1cc(N2CC2)c([N+](=O)[O-])cc1[N+](=O)[O-] [CB 1954, 5-(aziridin-1-yl)-2,4-dinitrobenzamide]
% DRUG REDUCTION (E. coli nitroreductase; [8]): < 1.0% | % DRUG REDUCTION (E. coli nitroreductase; [9]): 72% | % DRUG REDUCTION (E. coli nitroreductase; [10]): < 1.0% | % DRUG REDUCTION (E. coli nitroreductase; [11]): < 1.0% | inhibition of 3H-thymidine incorporation [1]: 90% | effect of cell arrest on killing by the prodrug [2]: does not affect their killing; also recorded: does not affect the relative cytotoxicity | decrease in the concentration of CB 1954 (HB4a/NR cells [3]): time dependent decrease | dose at which cytotoxicity is exhibited (HB4a/NR cells [4]): 1.0 µM | MNTC at 2 h [5]: > 100 µM | DNA breaks (HB4a/NR cells [6]; 10 μM CB 1954 for 24 hours): 25 per 10^9 daltons of DNA | DNA crosslinks (HB4a/NR cells [6]; 10 μM CB 1954 for 24 hours): about 6 per 10^9 daltons of DNA | DNA breaks (HB4a/NR cells [6]; 50 μM CB 1954 for 24 hours): 28 per 10^9 daltons of DNA | DNA crosslinks (HB4a/NR cells [6]; 50 μM CB 1954 for 24 hours): 12 per 10^9 daltons of DNA

Nc1nc(O)c2ncn(COC(CO)CO)c2n1 [GCV, gancyclovir]
effect of cell arrest on killing by the prodrug [7]: prevents GCV killing; also recorded: prevents gancyclovir (GCV) cytotoxicity

NC(=O)c1cc(N(CCCl)CCCl)c([N+](=O)[O-])cc1[N+](=O)[O-] [SN23862, 5-(bis(2'-chloroethyl)amino)-2,4-dinitrobenzamide]
% DRUG REDUCTION (E. coli nitroreductase; [8]): < 1.0% | % DRUG REDUCTION (E. coli nitroreductase; [9]): 95% | % DRUG REDUCTION (E. coli nitroreductase; [10]): < 1.0% | % DRUG REDUCTION (E. coli nitroreductase; [11]): < 1.0%

B1: Nitroreductase: E. coli nitroreductase, enzyme that converts the prodrug into a cytotoxic drug (protein)
chain: MDIISVALKRHSTKAFDASKKLTPEQAEQIKTLLQYSPSSTNSQPWHFIVASTEEGKARVAKSAAGNYVFNERKMLDASHVVVFCAKTAMDDVWLKLVVDQEDADGRFATPEAKAANDKGRKFFADMHRKDLHDDAEWMAKQVYLNVGNFLLGVAALGLDAVPIEGFDAAILDAEFGLKEKGYTSLVVVPVGHHSVEDFNATLPKSRLPQNITLTEV
% SURVIVAL (V79 cells; nitroreductase 2 μg/ml alone, no drug, 2 hours at 37° C.): 94%

— US5958682A (priority 1993, dated 1999)
